By inhibition is commonly meant the drop in the measured response relative to a control, in per cent. What is called IC50 is the point on the concentration scale where inhibition reaches its midpoint. As usually defined, the CC50 is the concentration that lowers cell viability or growth by half. A low value points to harm at low concentration. What is called Ki is the equilibrium dissociation constant of an inhibitor or competing ligand from its target.

These results are taken from publication PMC10620162, “Structure—yeast α-glucosidase inhibitory activity relationship of 9-O-berberrubine carboxylates” (Scientific Reports, 2023).

Where two headings read alike, the source gives them in different places.

Data set [1] has as its target T1, yeast α-glucosidase (Saccharomyces cerevisiae, UniProt P53341).
T1 construct: purchased Sigma Aldrich
The experiment in a line: biochemical. As to conditions: for inhibition at 50 µM: read-out: Inhibition at 50 μM (%), 50 μM. As to the method:
Berberrubine derivatives will be assayed for yeast α-glucosidase inhibitory activity. The protocol described by Ramadhan et al. will be used[37]. Briefly, yeast α-glucosidase (0.1 U/mL) and substrate (1 mM p-nitrophenyl-α-D-glucopyranoside) were dissolved in 0.1 M phosphate buffer (pH 6.9). A 10 μL test sample was pre-incubated with α-glucosidase (40 μL) at 37 °C for 10 min. A substrate solution (50 μL) was then added to the reaction mixture and incubated at 37 °C for an additional 20 min, and terminated by adding 1 M Na2CO3 solution (100 μL). […] The percentage inhibition of activity was calculated as follows: % Inhibition = [(A0 − A1)/A0] × 100, where: A0 is the absorbance without the sample; A1 is the absorbance with the sample. The IC50 value was deduced from the plot of % inhibition versus the concentration of the test sample.

For another data set, the system named is HepG2 cells. The arrangement: method as in PMID 27561717. As to conditions: cited from earlier work; for glucose consumption (GC): HepG2 cells ref 29.
Details of data set [2]: method as in doi:10.2217/clp.09.41, PMID 16956957. As to conditions: cited from earlier work.
On the set-up of data set [3]: method as in PMID 27020531. As to conditions: at 20 °C ref 19; cited from earlier work.
In data set [4] the target is T1, yeast α-glucosidase. The experiment in a line: kinetic study of α-glucosidase inhibition (Lineweaver–Burk plots). As to conditions: for inhibition type: Lineweaver–Burk plot analysis. It counts as biochemical. On the procedure: To further investigate how these 9-O-berberrubine carboxylates interact with yeast α-glucosidase, the inhibition types of four potential compounds, 9, 26, 28 and 33 were studied by using Lineweaver–Burk plot analysis.
The mode of inhibition of α-glucosidase was determined from Lineweaver–Burk plots. The inhibition type was determined using various concentrations of p-NPG substrate in the absence or presence of compounds at different concentrations. The Ki value was determined from secondary plots of slope versus [I].

Data set [5] can be described thus: cytotoxicity study with HEK-293 cells (CellTiter 96 AQueous One). It counts as cell-based. As to conditions: human. On the procedure:
HEK-293 cells (ATCC® CRL-1573™) were maintained in growth medium consisting of DMEM (Gibco®, Langley, OK) supplemented with 10% fetal bovine serum (Gibco®, Langley, OK), 100 I.U./ml penicillin (Bio Basic Canada®, Ontario, CA), 100 μg/ml streptomycin (Bio Basic Canada®, Ontario, CA), and 10 mM HEPES (4-(2-hydroxyethyl)-1-piperazineethanesulfonic acid) (Sigma Aldrich®, St. Louis, MO) at 37 °C under 5% CO2.
The cytotoxicity of the active compounds (9, 26, 28 and 33) was tested with HEK-293 cells. The cells were seeded at 1 × 10^4 cells per well into 96-well plates in growth medium and incubated overnight. The compounds were prepared at the indicated concentrations in dimethylsulfoxide (DMSO) and added to the cells. Cells were incubated for 48 h before analyzing the cell viability using CellTiter 96® AQueous One Solution Cell Proliferation Assay kit (Promega, USA) according to manufacturer’s protocol. The plate was read at the A490 by VICTORTM X3 microplate reader (PerkinElmer, USA). The 1%DMSO treated cells as a positive control (100% viability). The CC50 values were calculated from nonlinear regression analysis. Results were reported as means and standard error mean (SEM) from three biological independent experiments.

Data set [6] concerns the target yeast α-glucosidase. Details: method as in PMID 26917220. As to conditions: cited from earlier work.

T1 sequence (P53341 whole entry): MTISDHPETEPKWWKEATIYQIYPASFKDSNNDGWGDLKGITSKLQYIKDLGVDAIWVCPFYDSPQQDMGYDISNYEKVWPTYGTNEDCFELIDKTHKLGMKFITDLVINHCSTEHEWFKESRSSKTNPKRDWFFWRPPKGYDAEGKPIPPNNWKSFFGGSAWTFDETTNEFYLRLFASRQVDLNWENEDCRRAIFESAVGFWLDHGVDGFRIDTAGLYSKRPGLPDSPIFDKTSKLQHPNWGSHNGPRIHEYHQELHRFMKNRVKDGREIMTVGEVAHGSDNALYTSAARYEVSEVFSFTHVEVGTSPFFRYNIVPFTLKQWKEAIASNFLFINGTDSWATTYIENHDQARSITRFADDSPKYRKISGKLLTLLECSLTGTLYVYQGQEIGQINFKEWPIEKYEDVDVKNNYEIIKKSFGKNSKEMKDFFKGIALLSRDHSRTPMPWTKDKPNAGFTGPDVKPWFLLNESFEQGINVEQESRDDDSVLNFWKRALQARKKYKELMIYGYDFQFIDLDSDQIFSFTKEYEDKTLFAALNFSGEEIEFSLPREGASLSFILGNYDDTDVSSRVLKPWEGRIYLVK

For `COc1ccc2cc3[n+](cc2c1OC)CCc1cc2c(cc1-3)OCO2` [BBR, Berberine, reference compound], on yeast α-glucosidase [1], the inhibition at 50 µM was < 0%. Also, the “glucose consumption (GC)” value with HepG2 cells is on record as 5.04 mM. The bioavailability entry in data set [2] was “less than 5%”. Also, the aqueous solubility in data set [3] was ~ 1.8 mg/mL.
For the compound `COc1ccc2cc3[n+](cc2c1OC(=O)c1ccccc1OCc1ccccc1)CCc1cc2c(cc1-3)OCO2.[Cl-]` [Compound 9, 9-((2-(benzyloxy)benzoyl)oxy)-10-methoxy-5,6-dihydro-[1,3]dioxolo[4,5-g]isoquinolino[3,2-a]isoquinolin-7-ium chloride], the IC50 at yeast α-glucosidase [1] (read-out: IC50) was 2.29 ± 0.08 µM. Besides, the inhibition at 50 µM on yeast α-glucosidase [1] stood at 100%. On yeast α-glucosidase [4], the inhibition type result is listed as “competitive”. Further, it took 30.5 µM to reach half-maximal cytotoxicity in data set [5] (CC50 at 48 h).
Consider `COc1ccc2cc3[n+](cc2c1OC(=O)c1c(Cl)cccc1Cl)CCc1cc2c(cc1-3)OCO2` [Compound 21, 9-((2,6-dichlorobenzoyl)oxy)-10-methoxy-5,6-dihydro-[1,3]dioxolo[4,5-g]isoquinolino[3,2-a]isoquinolin-7-ium chloride], for which, at yeast α-glucosidase [1], the IC50 is 5.86 ± 0.35 µM and the inhibition at 50 µM was determined as 96.6%.
The matching figures for `COc1ccc2cc3[n+](cc2c1OC(=O)c1ccccc1C)CCc1cc2c(cc1-3)OCO2` [Compound 22, 10-methoxy-9-((2-methylbenzoyl)oxy)-5,6-dihydro-[1,3]dioxolo[4,5-g]isoquinolino[3,2-a]isoquinolin-7-ium chloride]: 18.1 ± 0.68 µM and 90.6%.
The matching figures for `COc1ccc2cc3[n+](cc2c1OC(=O)c1ccc(C)cc1)CCc1cc2c(cc1-3)OCO2` [Compound 23, 10-methoxy-9-((4-methylbenzoyl)oxy)-5,6-dihydro-[1,3]dioxolo[4,5-g]isoquinolino[3,2-a]isoquinolin-7-ium chloride]: 17.5 ± 1.11 µM and 78.9%.
For `CCc1ccc(C(=O)Oc2c(OC)ccc3cc4[n+](cc23)CCc2cc3c(cc2-4)OCO3)cc1` [Compound 24, 9-((4-ethylbenzoyl)oxy)-10-methoxy-5,6-dihydro-[1,3]dioxolo[4,5-g]isoquinolino[3,2-a]isoquinolin-7-ium chloride], in that order: 12.5 ± 0.99 µM and 81%.
Regarding `COc1ccc2cc3[n+](cc2c1OC(=O)c1ccc(C(C)(C)C)cc1)CCc1cc2c(cc1-3)OCO2` [Compound 25, 9-((4-(tert-butyl)benzoyl)oxy)-10-methoxy-5,6-dihydro-[1,3]dioxolo[4,5-g]isoquinolino[3,2-a]isoquinolin-7-ium chloride], at yeast α-glucosidase [1], the IC50 turned out to be 3.53 ± 0.31 µM and the inhibition at 50 µM came out at 98.9%.
As to `COc1ccc2cc3[n+](cc2c1OC(=O)c1cc(C(C)(C)C)cc(C(C)(C)C)c1)CCc1cc2c(cc1-3)OCO2.[Cl-]` [Compound 26, 9-((3,5-di-tert-butylbenzoyl)oxy)-10-methoxy-5,6-dihydro-[1,3]dioxolo[4,5-g]isoquinolino[3,2-a]isoquinolin-7-ium chloride], on yeast α-glucosidase [1], 1.61 ± 0.08 µM corresponded to half-maximal inhibition (IC50) and the inhibition at 50 µM was 99.8%. Also, at yeast α-glucosidase [4], affinity was put at a Ki of 10.7 µM and the inhibition type result is given as “competitive”. This compound also yielded a CC50 at 48 h in data set [5] of 18.2 µM.
As to `COc1ccc2cc3[n+](cc2c1OC(=O)c1cccc2ccccc12)CCc1cc2c(cc1-3)OCO2` [Compound 27, 9-((1-naphthoyl)oxy)-10-methoxy-5,6-dihydro-[1,3]dioxolo[4,5-g]isoquinolino[3,2-a]isoquinolin-7-ium chloride], the IC50 at yeast α-glucosidase [1] (read-out: IC50) was determined as 2.67 ± 0.27 µM. Moreover, the inhibition at 50 µM on yeast α-glucosidase [1] is 99.8%.
Consider `COc1ccc2cc3[n+](cc2c1OC(=O)c1ccc2ccccc2c1)CCc1cc2c(cc1-3)OCO2.[Cl-]` [Compound 28, 9-((2-naphthoyl)oxy)-10-methoxy-5,6-dihydro-[1,3]dioxolo[4,5-g]isoquinolino[3,2-a]isoquinolin-7-ium chloride], for which the IC50 at yeast α-glucosidase [1] (read-out: IC50) is 2.63 ± 0.23 µM. At yeast α-glucosidase [1], the inhibition at 50 µM turned out to be 95.7%. Further, the inhibition type result on yeast α-glucosidase [4] was “competitive”. The Ki at yeast α-glucosidase [4] (secondary plots of slope versus [I], read-out: inhibition constants (Ki)) was 25.3 µM. In data set [5], half-maximal cytotoxicity (CC50 at 48 h) was put at 20.9 µM.
For the compound `COc1ccc2cc3[n+](cc2c1OC(=O)C=Cc1ccccc1)CCc1cc2c(cc1-3)OCO2.[Cl-]` [Compound 29, 9-(cinnamoyloxy)-10-methoxy-5,6-dihydro-[1,3]dioxolo[4,5-g]isoquinolino[3,2-a]isoquinolin-7-ium chloride], on yeast α-glucosidase [1], the IC50 was determined as 15.1 ± 0.6 µM and the inhibition at 50 µM amounted to 88.5%. Moreover, the “glucose consumption (GC)” value in the data set on HepG2 cells is 6.73 mM. Also, the cytotoxicity result in the data set with HepG2 cells (compared with berberine ref 29) is given as “lower than berberine”.
Consider `COc1ccc2cc3[n+](cc2c1OC(=O)/C(C)=C/c1ccccc1)CCc1cc2c(cc1-3)OCO2` [Compound 30, (E)-10-methoxy-9-((2-methyl-3-phenylacryloyl)oxy)-5,6-dihydro-[1,3]dioxolo[4,5-g]isoquinolino[3,2-a]isoquinolin-7-ium chloride], for which, on yeast α-glucosidase [1], 10.3 ± 0.84 µM corresponded to half-maximal inhibition (IC50) and the inhibition at 50 µM stood at 91.9%.
As to `COc1ccc2cc3[n+](cc2c1OC(=O)/C=C/c1ccc2c(c1)OCO2)CCc1cc2c(cc1-3)OCO2` [Compound 31, (E)-9-((3-(benzo[d][1,3]dioxol-5-yl)acryloyl)oxy)-10-methoxy-5,6-dihydro-[1,3]dioxolo[4,5-g]isoquinolino[3,2-a]isoquinolin-7-ium chloride], the IC50 at yeast α-glucosidase [1] (read-out: IC50) is 4.64 ± 0.55 µM. Moreover, the inhibition at 50 µM on yeast α-glucosidase [1] was 98.9%.
Regarding `COc1ccc2cc3[n+](cc2c1OC(=O)/C=C/c1c(Cl)cccc1Cl)CCc1cc2c(cc1-3)OCO2` [Compound 32, (E)-9-((3-(2,6-dichlorophenyl)acryloyl)oxy)-10-methoxy-5,6-dihydro-[1,3]dioxolo[4,5-g]isoquinolino[3,2-a]isoquinolin-7-ium chloride], at yeast α-glucosidase [1], half-maximal inhibition (IC50) required 16 ± 0.67 µM and the inhibition at 50 µM is 94.8%.
Take `COc1ccc2cc3[n+](cc2c1OC(=O)/C=C/C=C/c1ccc2c(c1)OCO2)CCc1cc2c(cc1-3)OCO2.[Cl-]` [Compound 33, 9-(((2E,4E)-5-(benzo[d][1,3]dioxol-5-yl)penta-2,4-dienoyl)oxy)-10-methoxy-5,6-dihydro-[1,3]dioxolo[4,5-g]isoquinolino[3,2-a]isoquinolin-7-ium chloride]: on yeast α-glucosidase [1] (read-out: IC50), the IC50 came to 1.95 ± 0.06 µM. At yeast α-glucosidase [1], the inhibition at 50 µM amounted to 98.7%. For the same compound, the inhibition type result against yeast α-glucosidase [4] was “competitive”. For the same compound, half-maximal cytotoxicity in data set [5] (CC50 at 48 h) was put at 17.7 µM.
For `COc1ccc2cc3[n+](cc2c1OC(=O)Cc1c(Cl)cccc1Cl)CCc1cc2c(cc1-3)OCO2` [Compound 34, 9-(2-(2,6-dichlorophenyl)acetoxy)-10-methoxy-5,6-dihydro-[1,3]dioxolo[4,5-g]isoquinolino[3,2-a]isoquinolin-7-ium chloride], the IC50 on yeast α-glucosidase [1] (read-out: IC50) was 7.3 ± 0.51 µM. For the same compound, the inhibition at 50 µM on yeast α-glucosidase [1] is 93.9%.
On to `COc1ccc2cc3[n+](cc2c1OC(=O)C(c1ccccc1)c1ccccc1)CCc1cc2c(cc1-3)OCO2` [Compound 35, 9-(2,2-diphenylacetoxy)-10-methoxy-5,6-dihydro-[1,3]dioxolo[4,5-g]isoquinolino[3,2-a]isoquinolin-7-ium chloride], for which, on yeast α-glucosidase [1] (read-out: IC50), the IC50 is 6.19 ± 0.32 µM. Also, the inhibition at 50 µM on yeast α-glucosidase [1] is 95.2%.
Regarding `O=c1c2ccccc2oc2cc(O)cc(O)c12` [Compound X1, 1,3-dihydroxyxanthone], the IC50 at yeast α-glucosidase [6] was 145 µM.
In the case of `CC(C)(C)[Si](C)(C)Oc1ccc(C(=O)Oc2cc(O)c3c(=O)c4ccccc4oc3c2)cc1` [Compound X2, 3-Arylacyloxyxanthone], the IC50 on yeast α-glucosidase [6] is 10.6 µM.
